Assay results reported in patent publication US10519211B2, “Compounds as peptidic GLP1/glucagon/GIP receptor agonists” (SANOFI, priority 2016, dated 2019).
pEC50: −log10 of the molar value. Numbered stars: 1 amine (or outer) side, 2 acyl side, 3 side chain; on linkers, the order of the positions; unused ones are H or OH. Square brackets hold non-standard residues; d marks the D form. Side chains are listed from the residue outwards. Peptide text beside a SMILES is read from it. * marks the point of attachment. γGlu = O=C(O)[C@H](CCC(=O)[*:2])N[*:1]; Palmitoyl = CCCCCCCCCCCCCCCC(=O)*; Aib = CC(C)(N)C(=O)O

Assays:
[1] = Solubility assessment (UPLC-UV); assay type: physicochemical; settings: acetate buffer pH 4.5, 2.7 mg/ml m-cresol (buffer system A), target 10 mg/ml
Summary of the method: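 Peptides at 10 mg/mL (purity-corrected, by UPLC/MS) in 100 mM acetate buffer pH 4.5 with 2.7 mg/ml m-Cresol, gently agitated 1 hour, then centrifuged 15 min at 2500 RCF. Supernatant, diluted 1:10, quantified by UPLC-UV peak area against a reference peptide standard curve, extinction-coefficient corrected.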

[2] = target: T1, human GIP receptor (hGIP-R) (Homo sapiens, UniProt P48546); assay: cAMP response (HTRF) of HEK-293 cells stably expressing human GIP receptor; assay type: cell-based; settings: Table 8; cAMP formation
T1 construct: expressed in transfected cells; host or cells: HEK-293
T1 sequence (P48546 22-466): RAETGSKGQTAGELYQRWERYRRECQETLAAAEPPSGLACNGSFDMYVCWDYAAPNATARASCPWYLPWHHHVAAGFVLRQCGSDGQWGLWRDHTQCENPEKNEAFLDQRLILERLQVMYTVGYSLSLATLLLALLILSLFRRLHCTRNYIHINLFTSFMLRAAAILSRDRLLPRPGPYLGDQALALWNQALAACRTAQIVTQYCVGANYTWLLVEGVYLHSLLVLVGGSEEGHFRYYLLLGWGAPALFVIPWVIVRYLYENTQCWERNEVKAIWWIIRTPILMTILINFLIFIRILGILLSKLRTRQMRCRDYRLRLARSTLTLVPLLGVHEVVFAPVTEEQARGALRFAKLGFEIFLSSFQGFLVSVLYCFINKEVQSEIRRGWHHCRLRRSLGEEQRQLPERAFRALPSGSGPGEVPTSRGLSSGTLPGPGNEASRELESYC
Description: cAMP content of cells was determined using a kit from Cisbio Corp. (cat. no. 62AM4PEJ) based on HTRF (Homogenous Time Resolved Fluorescence). For preparation, cells were split into T175 culture flasks and grown overnight to near confluency in medium (DMEM/10% FBS). Medium was then removed and cells washed with PBS lacking calcium and magnesium, followed by proteinase treatment with accutase (Sigma-Aldrich cat. no. A6964). Detached cells were washed and resuspended in assay buffer (1×HBSS; 20 mM HEPES, 0.1% BSA, 2 mM IBMX) and cellular density determined. They were then diluted to 400000 cells/ml and 25 μl-aliquots dispensed into the wells of 96-well plates. For measurement, 25 μl of test compound in assay buffer was added to the wells, followed by incubation for 30 minutes at room temperature.
Potencies of peptidic compounds at the GLP-1, glucagon and GIP receptors were determined by exposing cells expressing human glucagon receptor (hGlucagon R), human GIP receptor (hGIP-R) or human GLP-1 receptor (hGLP-1 R) to the listed compounds at increasing concentrations and measuring the formed cAMP as described in Methods.

[3] = Dynamic light scattering (DLS), hydrodynamic radius as surrogate for interaction parameter kD; assay type: physicochemical; settings: for Delta Rh [nm] = Rh5 − Rh1: DLS buffer system A pH 4.5; for Rh1 [nm] c= 1 mg/ml / Rh5 [nm] c = 5 mg/ml: hydrodynamic radius, DLS buffer system A pH 4.5, DLS method C, 25° C.
Summary of the method: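 Rh and diffusion constant measured in triplicate at 1 and 5 mg/ml peptide in 25 mM acetate pH4.5 with methionine, m-cresol and glycerol, at 25°C, 830 nm, 158°. Rh5<Rh1 or D5>D1 taken as kD>0, indicating repulsive interactions.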

solubility at 1 h [1] | pEC50 [2] | Delta Rh [nm] = Rh5 − Rh1 [3] | Rh1 [nm] c= 1 mg/ml [3] | Rh5 [nm] c = 5 mg/ml [3] | Compound
> 10000 µg/mL | 11.25 | – | – | – | CCCCCCCCCCCCCCCC(=O)N[C@@H](CCC(=O)N[C@@H](CCC(=O)NCCCC[C@H](NC(=O)[C@H](CC(C)C)NC(=O)[C@H](CCCCN)NC(=O)[C@H](CO)NC(=O)[C@H](CC(C)C)NC(=O)[C@H](CC(=O)O)NC(=O)[C@H](CO)NC(=O)[C@@H](NC(=O)[C@H](Cc1ccccc1)NC(=O)[C@@H](NC(=O)CNC(=O)[C@H](CCC(N)=O)NC(=O)C(C)(C)NC(=O)[C@@H](N)Cc1c[nH]cn1)[C@@H](C)O)[C@@H](C)O)C(=O)N[C@@H](CCC(=O)O)C(=O)N[C@@H](CCC(=O)O)C(=O)N[C@@H](CCC(N)=O)C(=O)N[C@@H](CCCNC(=N)N)C(=O)N[C@@H](CCC(N)=O)C(=O)NC(C)(C)C(=O)N[C@@H](CCC(=O)O)C(=O)N[C@@H](Cc1ccccc1)C(=O)N[C@H](C(=O)N[C@@H](CCC(=O)O)C(=O)N[C@@H](Cc1c[nH]c2ccccc12)C(=O)N[C@@H](CC(C)C)C(=O)N[C@@H](CCCCN)C(=O)N[C@@H](C)C(=O)NCC(=O)NCC(=O)N[C@@H](Cc1c[nH]cn1)C(=O)N1CCC[C@H]1C(=O)N[C@@H](CO)C(=O)NC(C)(C)C(=O)N[C@@H](CCCCN)C(=O)N1CCC[C@H]1C(=O)N1CCC[C@H]1C(=O)N1CCC[C@H]1C(=O)N[C@@H](CCCCN)C(N)=O)[C@@H](C)CC)C(=O)O)C(=O)O [SEQ ID NO: 8, H-Aib-Q-G-T-F-T-S-D-L-S-K-L-K[gGlu-gGlu-Palm]-E-E-Q-R-Q-Aib-E-F-I-E-W-L-K-A-G-G-H-P-S-Aib-K-P-P-P-K-NH2]
> 10100 µg/mL | – | – | – | – | CCCCCCCCCCCCCCCC(=O)N[C@@H](CCC(=O)N[C@@H](CCC(=O)NCCCC[C@H](NC(=O)[C@H](CC(C)C)NC(=O)[C@H](CCCCN)NC(=O)[C@H](CO)NC(=O)[C@H](CC(C)C)NC(=O)[C@H](CC(=O)O)NC(=O)[C@H](CO)NC(=O)[C@@H](NC(=O)[C@H](Cc1ccccc1)NC(=O)[C@@H](NC(=O)CNC(=O)[C@H](CCC(N)=O)NC(=O)C(C)(C)NC(=O)[C@@H](N)Cc1c[nH]cn1)[C@@H](C)O)[C@@H](C)O)C(=O)N[C@@H](CCC(=O)O)C(=O)N[C@@H](CCC(=O)O)C(=O)N[C@@H](CCC(N)=O)C(=O)N[C@@H](CCCNC(=N)N)C(=O)N[C@@H](CCC(N)=O)C(=O)NC(C)(C)C(=O)N[C@@H](CCC(=O)O)C(=O)N[C@@H](Cc1ccccc1)C(=O)N[C@H](C(=O)N[C@@H](CCC(=O)O)C(=O)N[C@@H](Cc1c[nH]c2ccccc12)C(=O)N[C@@H](CC(C)C)C(=O)N[C@@H](CCCCN)C(=O)N[C@@H](C)C(=O)N[C@H](C)C(=O)NCC(=O)N1CCC[C@H]1C(=O)N1CCC[C@H]1C(=O)N[C@@H](CO)C(=O)NC(C)(C)C(=O)N[C@@H](CCCCN)C(=O)N1CCC[C@H]1C(=O)N1CCC[C@H]1C(=O)N1CCC[C@H]1C(=O)N[C@@H](CCCCN)C(N)=O)[C@@H](C)CC)C(=O)O)C(=O)O [SEQ ID NO: 10, H-Aib-Q-G-T-F-T-S-D-L-S-K-L-K[gGlu-gGlu-Palm]-E-E-Q-R-Q-Aib-E-F-I-E-W-L-K-A-dAla-G-P-P-S-Aib-K-P-P-P-K-NH2] (H-H[Aib]QGTFTSDLSKLK([γGlu-γGlu-Palmitoyl])EEQRQ[Aib]EFIEWLKA[dA]GPPS[Aib]KPPPK-NH2)
> 9300 µg/mL | – | −0.3 nm | 2.8 nm | 2.5 nm | CCCCCCCCCCCCCCCC(=O)N[C@@H](CCC(=O)N[C@@H](CCC(=O)NCCCC[C@H](NC(=O)[C@H](CC(C)C)NC(=O)[C@H](CCCCN)NC(=O)[C@H](CO)NC(=O)[C@H](CC(C)C)NC(=O)[C@H](CC(=O)O)NC(=O)[C@H](CO)NC(=O)[C@@H](NC(=O)[C@H](Cc1ccccc1)NC(=O)[C@@H](NC(=O)CNC(=O)[C@H](CCC(N)=O)NC(=O)C(C)(C)NC(=O)[C@@H](N)Cc1c[nH]cn1)[C@@H](C)O)[C@@H](C)O)C(=O)N[C@@H](CCC(=O)O)C(=O)N[C@@H](CCCCN)C(=O)N[C@@H](CCC(N)=O)C(=O)N[C@@H](CCCNC(=N)N)C(=O)N[C@@H](CCC(N)=O)C(=O)NC(C)(C)C(=O)N[C@@H](CCC(=O)O)C(=O)N[C@@H](Cc1ccccc1)C(=O)N[C@H](C(=O)N[C@@H](CCC(=O)O)C(=O)N[C@@H](Cc1c[nH]c2ccccc12)C(=O)N[C@@H](CC(C)C)C(=O)N[C@@H](CCCCN)C(=O)N[C@@H](C)C(=O)N[C@H](C)C(=O)NCC(=O)N[C@@H](Cc1c[nH]cn1)C(=O)N1CCC[C@H]1C(=O)N[C@@H](CO)C(=O)NC(C)(C)C(=O)N[C@@H](CCCCN)C(=O)N1CCC[C@H]1C(=O)N1CCC[C@H]1C(=O)N1CCC[C@H]1C(=O)N[C@@H](CCCCN)C(N)=O)[C@@H](C)CC)C(=O)O)C(=O)O [SEQ ID NO: 13, H-Aib-Q-G-T-F-T-S-D-L-S-K-L-K[gGlu-gGlu-Palm]-E-K-Q-R-Q-Aib-E-F-I-E-W-L-K-A-dAla-G-H-P-S-Aib-K-P-P-P-K-NH2] (H-H[Aib]QGTFTSDLSKLK([γGlu-γGlu-Palmitoyl])EKQRQ[Aib]EFIEWLKA[dA]GHPS[Aib]KPPPK-NH2)
> 9900 µg/mL | – | −0.3 nm | 2.8 nm | 2.4 nm | CCCCCCCCCCCCCCCC(=O)N[C@@H](CCC(=O)N[C@@H](CCC(=O)NCCCC[C@H](NC(=O)[C@H](CC(C)C)NC(=O)[C@H](CCCCN)NC(=O)[C@H](CO)NC(=O)[C@H](CC(C)C)NC(=O)[C@H](CC(=O)O)NC(=O)[C@H](CO)NC(=O)[C@@H](NC(=O)[C@H](Cc1ccccc1)NC(=O)[C@@H](NC(=O)CNC(=O)[C@H](CCC(N)=O)NC(=O)C(C)(C)NC(=O)[C@@H](N)Cc1c[nH]cn1)[C@@H](C)O)[C@@H](C)O)C(=O)N[C@@H](CCC(=O)O)C(=O)N[C@@H](CCCCN)C(=O)N[C@@H](CCC(N)=O)C(=O)N[C@@H](CCCNC(=N)N)C(=O)N[C@@H](CCC(N)=O)C(=O)NC(C)(C)C(=O)N[C@@H](CCC(=O)O)C(=O)N[C@@H](Cc1ccccc1)C(=O)N[C@H](C(=O)N[C@@H](CCC(=O)O)C(=O)N[C@@H](Cc1c[nH]c2ccccc12)C(=O)N[C@@H](CC(C)C)C(=O)N[C@@H](CCCCN)C(=O)N[C@@H](C)C(=O)N[C@H](C)C(=O)NCC(=O)N1CCC[C@H]1C(=O)N1CCC[C@H]1C(=O)N[C@@H](CO)C(=O)NC(C)(C)C(=O)N[C@@H](CCCCN)C(=O)N1CCC[C@H]1C(=O)N1CCC[C@H]1C(=O)N1CCC[C@H]1C(=O)N[C@@H](CCCCN)C(N)=O)[C@@H](C)CC)C(=O)O)C(=O)O [SEQ ID NO: 7, H-Aib-Q-G-T-F-T-S-D-L-S-K-L-K[gGlu-gGlu-Palm]-E-K-Q-R-Q-Aib-E-F-I-E-W-L-K-A-dAla-G-P-P-S-Aib-K-P-P-P-K-NH2] (H-H[Aib]QGTFTSDLSKLK([γGlu-γGlu-Palmitoyl])EKQRQ[Aib]EFIEWLKA[dA]GPPS[Aib]KPPPK-NH2)
– | 11.25 | – | – | – | CCCCCCCCCCCCCCCC(=O)N[C@@H](CCC(=O)N[C@@H](CCC(=O)NCCCC[C@H](NC(=O)[C@H](CC(C)C)NC(=O)[C@H](CCCCN)NC(=O)[C@H](CO)NC(=O)[C@H](CC(C)C)NC(=O)[C@H](CC(=O)O)NC(=O)[C@H](CO)NC(=O)[C@@H](NC(=O)[C@H](Cc1ccccc1)NC(=O)[C@@H](NC(=O)CNC(=O)[C@H](CCC(N)=O)NC(=O)C(C)(C)NC(=O)[C@@H](N)Cc1c[nH]cn1)[C@@H](C)O)[C@@H](C)O)C(=O)N[C@@H](CCC(=O)O)C(=O)N[C@@H](CCC(=O)O)C(=O)N[C@@H](CCC(N)=O)C(=O)N[C@@H](CCCNC(=N)N)C(=O)N[C@@H](CCC(N)=O)C(=O)NC(C)(C)C(=O)N[C@@H](CCC(=O)O)C(=O)N[C@@H](Cc1ccccc1)C(=O)N[C@H](C(=O)N[C@@H](CCC(=O)O)C(=O)N[C@@H](Cc1c[nH]c2ccccc12)C(=O)N[C@@H](CC(C)C)C(=O)N[C@@H](CCCCN)C(=O)N[C@@H](C)C(=O)NCC(=O)NCC(=O)N1CCC[C@H]1C(=O)N1CCC[C@H]1C(=O)N[C@@H](CO)C(=O)NC(C)(C)C(=O)N[C@@H](CCCCN)C(=O)N1CCC[C@H]1C(=O)N1CCC[C@H]1C(=O)N1CCC[C@H]1C(=O)N[C@@H](CCCCN)C(N)=O)[C@@H](C)CC)C(=O)O)C(=O)O [SEQ ID NO: 9, H-Aib-Q-G-T-F-T-S-D-L-S-K-L-K[gGlu-gGlu-Palm]-E-E-Q-R-Q-Aib-E-F-I-E-W-L-K-A-G-G-P-P-S-Aib-K-P-P-P-K-NH2]
